# Test results: ChEMBL document CHEMBL1201862, “PubChem BioAssay data set” (2004)
# Active and inactive are the calls of the source.
# Columns and labels:
# [1] = target: Low molecular weight phosphotyrosine protein phosphatase (Homo sapiens, UniProt P24666); assay type: functional; conditions: read-out: IC50_Mean;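 also: Dose-response confirmation assay measuring inhibition of LMPTP enzyme activity by fluorescence intensity read-out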
# H9c2 = assay: cells; assay type: functional, cell-based; conditions: Rattus norvegicus, H9c2, Myocardium;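 also: confirmatory concentration-response retest of ultra-high-throughput screening hits for modulation of myocardial damage; cell death induced by hydrogen peroxide oxidative stress; compound pretreatment for 60 min then peroxide exposure for 2 h; potency is for protecting the cells against peroxide damage rather than for killing them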
# Melanocortin receptor 4 = Melanocortin receptor 4 (Homo sapiens, UniProt P32245); assay type: functional, cell-based;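 also: Cell-based assay with luminescence read-out, confirmatory dose-response testing for agonist activity of biased ligands at MC4R; human U2OS cells with tagged receptor and beta-arrestin; potency of agonists that increase receptor coupling to beta-arrestin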
# [2] = target: Mitochondrial peptide methionine sulfoxide reductase (Bos taurus, UniProt P54149); assay type: functional;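 also: absorbance read-out, biochemical high-throughput dose-response screen for MsrA inhibitors, confirmatory; recombinant bovine MsrA coupled to E. coli TrxB with NADPH and selenocystamine; potency is for inhibitors of MsrA activity on DMSO substrate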
# Sequence of Mitochondrial peptide methionine sulfoxide reductase (P54149 whole entry): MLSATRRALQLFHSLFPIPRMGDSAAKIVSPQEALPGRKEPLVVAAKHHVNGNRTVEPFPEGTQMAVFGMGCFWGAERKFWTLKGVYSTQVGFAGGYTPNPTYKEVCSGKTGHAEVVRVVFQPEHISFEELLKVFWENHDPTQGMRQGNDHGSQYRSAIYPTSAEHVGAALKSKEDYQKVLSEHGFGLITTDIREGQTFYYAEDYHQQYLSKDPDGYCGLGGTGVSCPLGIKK
# Bcl-2-related protein A1 = target: T1, Bcl-2-related protein A1 (Mus musculus, UniProt Q07440); assay type: functional;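 also: confirmatory dose–response counterscreen on Bfl-1, used to check hits from a UBC13 polyubiquitin inhibitor campaign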
# T1 sequence (Q07440 whole entry): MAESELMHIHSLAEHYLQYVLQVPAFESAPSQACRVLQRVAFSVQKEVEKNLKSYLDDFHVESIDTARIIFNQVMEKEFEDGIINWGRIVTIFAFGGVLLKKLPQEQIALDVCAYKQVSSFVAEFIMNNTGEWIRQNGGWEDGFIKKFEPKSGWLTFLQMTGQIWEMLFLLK
# [3] = target: T2, Ubiquitin-conjugating enzyme E2 N (Homo sapiens, UniProt P61088); assay type: functional
# T2 sequence (P61088 whole entry): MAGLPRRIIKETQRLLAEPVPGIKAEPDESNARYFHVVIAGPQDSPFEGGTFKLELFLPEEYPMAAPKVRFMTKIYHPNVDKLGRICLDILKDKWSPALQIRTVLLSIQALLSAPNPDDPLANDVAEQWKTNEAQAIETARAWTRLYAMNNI
# [4] = target: T2, Ubiquitin-conjugating enzyme E2 N; assay type: functional; remark: listed apart in the source
# Insulin-degrading enzyme [5] = target: T3, Insulin-degrading enzyme (Homo sapiens, UniProt P14735); assay: activators of recombinant IDE enzyme, dose response, counter-screen for IDE activator project, biochemical, fluorescence polarization (AID 588681)
# T3 sequence (P14735 whole entry): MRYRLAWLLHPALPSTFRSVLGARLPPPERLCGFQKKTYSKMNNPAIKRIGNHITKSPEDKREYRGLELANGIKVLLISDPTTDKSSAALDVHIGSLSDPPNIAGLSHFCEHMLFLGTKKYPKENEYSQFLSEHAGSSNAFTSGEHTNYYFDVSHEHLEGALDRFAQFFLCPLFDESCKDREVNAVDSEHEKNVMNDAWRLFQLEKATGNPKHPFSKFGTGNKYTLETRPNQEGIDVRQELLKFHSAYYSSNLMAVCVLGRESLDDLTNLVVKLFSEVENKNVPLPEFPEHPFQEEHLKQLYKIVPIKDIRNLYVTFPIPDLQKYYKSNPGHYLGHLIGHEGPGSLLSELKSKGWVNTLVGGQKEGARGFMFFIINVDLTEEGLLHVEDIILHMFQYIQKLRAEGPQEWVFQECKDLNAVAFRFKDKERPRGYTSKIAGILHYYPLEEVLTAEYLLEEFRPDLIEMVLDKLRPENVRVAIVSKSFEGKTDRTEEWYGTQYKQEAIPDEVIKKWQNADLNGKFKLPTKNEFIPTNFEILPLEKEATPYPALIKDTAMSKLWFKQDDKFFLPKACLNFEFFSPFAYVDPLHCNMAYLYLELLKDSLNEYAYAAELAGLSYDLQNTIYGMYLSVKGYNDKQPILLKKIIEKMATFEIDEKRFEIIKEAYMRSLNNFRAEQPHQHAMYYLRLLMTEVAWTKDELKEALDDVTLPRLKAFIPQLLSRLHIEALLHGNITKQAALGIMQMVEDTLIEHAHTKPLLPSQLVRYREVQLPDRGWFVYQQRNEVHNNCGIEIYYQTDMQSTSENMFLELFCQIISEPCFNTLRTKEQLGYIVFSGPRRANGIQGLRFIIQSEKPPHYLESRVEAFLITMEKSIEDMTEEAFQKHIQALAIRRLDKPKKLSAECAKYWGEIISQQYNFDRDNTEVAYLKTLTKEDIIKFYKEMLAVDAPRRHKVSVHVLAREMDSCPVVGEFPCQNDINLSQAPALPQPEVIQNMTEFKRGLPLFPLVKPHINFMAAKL
# [6] = target: T4, Apoptotic protease-activating factor 1 (Homo sapiens, UniProt O14727); assay type: functional
# T4 sequence (O14727 whole entry): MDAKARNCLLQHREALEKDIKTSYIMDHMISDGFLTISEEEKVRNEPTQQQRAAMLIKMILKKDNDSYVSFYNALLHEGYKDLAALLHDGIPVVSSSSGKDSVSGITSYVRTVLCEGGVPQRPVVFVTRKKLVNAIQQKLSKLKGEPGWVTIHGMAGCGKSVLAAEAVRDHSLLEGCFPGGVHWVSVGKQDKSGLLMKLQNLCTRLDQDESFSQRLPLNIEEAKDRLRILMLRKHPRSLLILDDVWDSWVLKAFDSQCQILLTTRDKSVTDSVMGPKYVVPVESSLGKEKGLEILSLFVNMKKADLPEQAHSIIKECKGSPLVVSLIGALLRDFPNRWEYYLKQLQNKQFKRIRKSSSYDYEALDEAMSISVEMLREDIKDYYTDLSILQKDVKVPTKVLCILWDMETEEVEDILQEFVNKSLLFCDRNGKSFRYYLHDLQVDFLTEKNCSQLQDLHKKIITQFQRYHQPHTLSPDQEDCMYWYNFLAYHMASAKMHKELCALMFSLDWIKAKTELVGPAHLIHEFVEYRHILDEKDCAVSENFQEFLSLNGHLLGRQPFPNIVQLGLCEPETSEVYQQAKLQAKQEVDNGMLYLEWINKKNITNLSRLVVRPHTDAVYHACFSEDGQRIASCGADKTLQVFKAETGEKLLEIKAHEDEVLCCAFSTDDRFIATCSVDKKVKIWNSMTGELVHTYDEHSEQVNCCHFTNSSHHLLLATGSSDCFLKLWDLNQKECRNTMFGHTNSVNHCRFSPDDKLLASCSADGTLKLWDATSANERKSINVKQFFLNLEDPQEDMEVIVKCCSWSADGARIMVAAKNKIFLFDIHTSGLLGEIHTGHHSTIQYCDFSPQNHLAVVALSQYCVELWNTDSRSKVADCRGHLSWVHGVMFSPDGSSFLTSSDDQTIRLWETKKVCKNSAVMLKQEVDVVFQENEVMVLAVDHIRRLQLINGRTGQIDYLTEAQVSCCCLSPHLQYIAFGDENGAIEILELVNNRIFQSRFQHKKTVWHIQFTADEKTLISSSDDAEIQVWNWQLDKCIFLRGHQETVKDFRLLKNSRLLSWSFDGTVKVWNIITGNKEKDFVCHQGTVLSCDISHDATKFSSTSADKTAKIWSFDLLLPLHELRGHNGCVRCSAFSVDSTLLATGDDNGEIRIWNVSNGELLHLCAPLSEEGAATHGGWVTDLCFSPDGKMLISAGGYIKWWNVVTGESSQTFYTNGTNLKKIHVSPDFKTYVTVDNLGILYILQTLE
# Insulin-degrading enzyme [7] = target: T3, Insulin-degrading enzyme; assay: activators of endogenous IDE in HEK cells, dose response, cell-based, fluorescence polarization (AID 588439); assay type: functional
# HEK293 [8] = assay: HEK cell cytotoxicity by LDH release, dose response, cytotoxicity control for IDE activator project, fluorescence, HEK cells (AID 588440); assay type: functional, cell-based; conditions: Homo sapiens;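 also: cytotoxicity by LDH release measuring loss of membrane integrity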
# HEK293 [9] = assay: optical interference in Abeta FP readout, dose response, artefact control for IDE activator project, biochemical, fluorescence polarization (AID 588442); assay type: functional, cell-based; conditions: Homo sapiens
# [10] = tested on: Streptococcus sp. 'group A'; assay: growth inhibition of control SK(-) GAS strain, dose response, counter-screen for streptokinase expression inhibitor project, luminescence, kanamycin, BacTiterGlo, confirmation (AID 1900); assay type: functional, organism-based
# Streptokinase A = target: T5, Streptokinase A (Streptococcus pyogenes serotype M1, UniProt P10520); assay: S. pyogenes streptokinase expression inhibitors, potency, dose response, plasminogen activation absorbance, OD405 (AID 1914); assay type: functional, Streptococcus pyogenes M1 GAS;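 also: secreted streptokinase activity via plasminogen activation per viability signal from cell pellet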
# T5 sequence (P10520 whole entry): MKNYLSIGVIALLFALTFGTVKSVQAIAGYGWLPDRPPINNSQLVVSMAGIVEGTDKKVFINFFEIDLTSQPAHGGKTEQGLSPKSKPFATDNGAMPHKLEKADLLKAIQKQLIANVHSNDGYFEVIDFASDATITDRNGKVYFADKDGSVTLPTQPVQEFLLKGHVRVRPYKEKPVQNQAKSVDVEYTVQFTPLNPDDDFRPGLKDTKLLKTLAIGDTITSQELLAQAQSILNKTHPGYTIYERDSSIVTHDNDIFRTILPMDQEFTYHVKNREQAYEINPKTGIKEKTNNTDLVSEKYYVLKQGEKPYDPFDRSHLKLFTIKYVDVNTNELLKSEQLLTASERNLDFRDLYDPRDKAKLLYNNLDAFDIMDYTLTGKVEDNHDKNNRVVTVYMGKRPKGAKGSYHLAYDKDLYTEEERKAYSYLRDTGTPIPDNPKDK
# [11] = inhibitors of intracellular T. cruzi replication, confirmation, NIH3T3 host cells, beta-gal luminescence (AID 2044); assay type: functional, cell-based;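 also: intracellular parasites grown in NIH/3T3 mouse fibroblasts as host cells; luminescent beta-galactosidase reporter signal from transgenic T. cruzi replicating inside host cells; inhibitors lower the luminescence signal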
# [12] = cytotoxicity toward NIH3T3 fibroblasts, dose response, counter-screen, cell-based, ATP luminescence, mouse fibroblasts (AID 2010); assay type: functional;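 also: cells exposed to compound for about 90 hours before reading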
# Streptococcus = assay: Group A Streptococcus viability loss, dose response, counter-screen for streptokinase expression inhibitor project, luminescence, BacTiterGlo (AID 1915); assay type: functional, organism-based;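 also: potency for reduction of bacterial viability or growth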
# [13] = target: Photoreceptor-specific nuclear receptor (Homo sapiens, UniProt Q9Y5X4); assay type: functional, cell-based;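 also: CHO-S cells with Gal4-NCOR and VP16-NR2E3 two-hybrid luciferase reporter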
# Fatty acid synthase [14] = target: T6, Fatty acid synthase (Homo sapiens, UniProt P49327); assay: FAS thioesterase domain inhibitors, dose response, biochemical, endpoint fluorescence intensity, uHTS hits (AID 624327); assay type: functional;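 also: fluorescence from hydrolysis of an O-methyl fluorescein acyl ester substrate by the enzyme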
# T6 sequence (P49327 whole entry, the tested form may be a part): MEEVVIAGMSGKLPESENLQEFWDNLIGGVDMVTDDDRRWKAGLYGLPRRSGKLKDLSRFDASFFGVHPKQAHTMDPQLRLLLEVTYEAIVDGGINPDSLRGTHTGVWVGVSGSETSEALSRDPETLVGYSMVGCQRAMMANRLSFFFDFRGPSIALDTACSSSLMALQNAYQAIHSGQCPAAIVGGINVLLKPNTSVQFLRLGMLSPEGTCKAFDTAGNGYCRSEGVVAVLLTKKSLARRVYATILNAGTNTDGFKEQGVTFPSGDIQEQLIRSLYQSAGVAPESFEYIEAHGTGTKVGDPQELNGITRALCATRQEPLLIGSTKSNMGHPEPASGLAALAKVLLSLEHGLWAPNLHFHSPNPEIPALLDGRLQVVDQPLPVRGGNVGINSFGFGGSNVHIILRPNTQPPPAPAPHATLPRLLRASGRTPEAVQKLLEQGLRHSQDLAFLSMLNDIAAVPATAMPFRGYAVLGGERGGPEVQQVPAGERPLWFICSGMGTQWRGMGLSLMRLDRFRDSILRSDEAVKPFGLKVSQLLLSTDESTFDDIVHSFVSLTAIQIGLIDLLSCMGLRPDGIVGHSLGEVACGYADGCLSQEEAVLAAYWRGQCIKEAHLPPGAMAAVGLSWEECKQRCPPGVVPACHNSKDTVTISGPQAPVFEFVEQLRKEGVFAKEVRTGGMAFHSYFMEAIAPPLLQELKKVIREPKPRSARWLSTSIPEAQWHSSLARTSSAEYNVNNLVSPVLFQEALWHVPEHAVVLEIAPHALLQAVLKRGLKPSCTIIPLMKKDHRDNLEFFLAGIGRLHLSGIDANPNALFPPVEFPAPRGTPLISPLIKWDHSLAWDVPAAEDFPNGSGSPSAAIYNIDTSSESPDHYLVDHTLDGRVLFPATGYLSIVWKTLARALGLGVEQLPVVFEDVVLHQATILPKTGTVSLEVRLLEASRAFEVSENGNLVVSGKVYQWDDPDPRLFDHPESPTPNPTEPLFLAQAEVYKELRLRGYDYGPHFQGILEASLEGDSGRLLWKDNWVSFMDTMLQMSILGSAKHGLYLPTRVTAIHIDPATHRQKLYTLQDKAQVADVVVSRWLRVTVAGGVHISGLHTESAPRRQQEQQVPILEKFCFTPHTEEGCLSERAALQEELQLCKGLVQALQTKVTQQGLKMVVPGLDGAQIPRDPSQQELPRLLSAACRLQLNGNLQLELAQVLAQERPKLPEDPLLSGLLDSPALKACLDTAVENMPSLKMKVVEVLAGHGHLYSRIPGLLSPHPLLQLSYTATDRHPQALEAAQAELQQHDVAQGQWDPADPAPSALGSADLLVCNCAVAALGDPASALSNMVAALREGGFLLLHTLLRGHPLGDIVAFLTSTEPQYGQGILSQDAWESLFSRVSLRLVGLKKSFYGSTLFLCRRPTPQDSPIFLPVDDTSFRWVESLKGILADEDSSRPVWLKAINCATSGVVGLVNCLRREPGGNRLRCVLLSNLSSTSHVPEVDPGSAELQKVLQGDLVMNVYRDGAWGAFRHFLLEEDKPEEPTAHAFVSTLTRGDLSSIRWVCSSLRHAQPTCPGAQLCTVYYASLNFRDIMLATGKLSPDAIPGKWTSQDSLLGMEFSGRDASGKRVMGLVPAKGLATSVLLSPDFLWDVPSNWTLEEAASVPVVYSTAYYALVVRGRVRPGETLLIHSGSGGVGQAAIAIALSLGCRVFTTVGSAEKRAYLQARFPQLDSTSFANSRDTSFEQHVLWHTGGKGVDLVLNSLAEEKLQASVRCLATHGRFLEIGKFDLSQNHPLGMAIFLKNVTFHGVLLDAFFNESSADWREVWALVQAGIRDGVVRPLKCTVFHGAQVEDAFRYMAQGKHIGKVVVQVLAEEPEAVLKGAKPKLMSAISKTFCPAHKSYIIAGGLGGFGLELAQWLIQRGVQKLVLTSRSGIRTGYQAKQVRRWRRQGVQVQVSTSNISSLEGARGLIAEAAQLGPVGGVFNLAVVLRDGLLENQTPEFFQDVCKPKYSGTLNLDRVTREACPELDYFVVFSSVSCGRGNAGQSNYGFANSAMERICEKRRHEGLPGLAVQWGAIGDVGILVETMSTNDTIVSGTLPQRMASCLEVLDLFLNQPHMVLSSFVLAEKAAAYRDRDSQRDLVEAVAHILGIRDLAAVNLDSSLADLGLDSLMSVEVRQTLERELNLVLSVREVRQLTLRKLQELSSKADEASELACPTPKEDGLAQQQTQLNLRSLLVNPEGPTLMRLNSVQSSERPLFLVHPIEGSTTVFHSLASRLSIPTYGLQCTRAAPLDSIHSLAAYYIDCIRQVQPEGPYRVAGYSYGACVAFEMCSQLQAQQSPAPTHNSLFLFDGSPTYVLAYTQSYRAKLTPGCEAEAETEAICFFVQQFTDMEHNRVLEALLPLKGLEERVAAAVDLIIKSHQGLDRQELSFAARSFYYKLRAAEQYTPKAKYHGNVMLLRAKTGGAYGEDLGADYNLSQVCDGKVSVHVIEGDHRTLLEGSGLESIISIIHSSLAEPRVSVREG
# Fatty acid synthase [15] = target: T6, Fatty acid synthase; assay: FAS thioesterase domain inhibitors, dose response, biochemical, kinetic fluorescence intensity (AID 624326); assay type: functional;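 also: rate of fluorescence rise from hydrolysis of a fluorogenic O-methyl fluorescein ester substrate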
# [16] = inhibitors of firefly luciferase expression or activity, dose response, H4 neuroglioma cells, luminescence (AID 1990); assay type: functional, cell-based
# [17] = Luminescence Cell-Based Dose Response HTS to Identify Inhibitors of 5'UTR Stem-Loop Driven Prion Protein mRNA Translation in H4 Neuroglioblastoma Cells. [Related pubchem assays: 1827 (Project Summary), 1813 (Primary HTS)]; assay type: functional
# [18] = inhibitors of SNCA 5'UTR-driven reporter translation, confirmation, H4 neuroglioma cells, luminescence (AID 1988); assay type: functional, cell-based
# [19] = growth suppression of PTEN-null colon cells, dose response, cell-based, HCT116 PTEN knockout (AID 1047); assay type: functional;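 also: HCT116 colon tumor cells with PTEN knocked out; cells exposed to compound for 60 hours before readout; potency for loss of cell viability measured by luminescence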
# [20] = growth suppression of beta-catenin-knockout colon cells, dose response, cell-based, HCT116, human colon tumor (AID 1045); assay type: functional;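 also: HCT116 colon tumor cells with beta catenin knocked out; cells exposed to compound for 60 hours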
# [21] = target: Neurotensin receptor type 1 (Homo sapiens, UniProt P30989); assay type: functional;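 also: Image-based confirmatory dose-response assay measuring agonist activity at NTR1; NTR1-expressing U2OS osteosarcoma cells imaged for beta-arrestin GFP spot formation; agonist potency where compounds increase beta-arrestin recruitment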
# Sequence of Neurotensin receptor type 1 (P30989 whole entry): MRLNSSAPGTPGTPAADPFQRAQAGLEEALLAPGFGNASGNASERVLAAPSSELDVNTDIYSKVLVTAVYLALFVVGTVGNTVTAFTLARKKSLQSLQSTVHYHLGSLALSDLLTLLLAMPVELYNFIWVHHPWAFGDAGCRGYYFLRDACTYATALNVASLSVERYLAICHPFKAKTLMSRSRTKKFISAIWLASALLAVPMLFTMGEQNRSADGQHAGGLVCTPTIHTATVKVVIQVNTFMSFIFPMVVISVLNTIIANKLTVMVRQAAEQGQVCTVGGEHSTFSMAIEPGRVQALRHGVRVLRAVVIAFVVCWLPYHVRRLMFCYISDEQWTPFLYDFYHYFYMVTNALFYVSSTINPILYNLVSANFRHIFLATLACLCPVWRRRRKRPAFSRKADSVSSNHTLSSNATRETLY
# [22] = cytotoxicity in HEK-293T cells, dose response, cytotoxicity control for TCR NF-kB inhibitor project, luminescence, T-cell screen hits (AID 489026); assay type: functional, cell-based;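 also: cells exposed to compound about 14 hours before the viability readout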
# INS1 = assay: beta cell apoptosis inhibitors, cytokine rescue, dose response, luminescence, retest (AID 449756); assay type: functional, cell-based; conditions: Rattus norvegicus;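 also: cell death triggered by IL-1 beta plus TNF-alpha plus IFN-gamma mixture; protective hits raise ATP signal compared with cytokine alone wells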
# [23] = target: T7, Polyadenylate-binding protein 1 (Homo sapiens, UniProt P11940); assay: PABP1 MLLE–PAM2 interaction inhibitors, dose response, miRNA deadenylation inhibitor project, biochemical, fluorescence polarization, Cy5-PAM2 peptide, secondary (AID 602260); assay type: functional; conditions: read-out: IC50_Mean
# T7 sequence (P11940 whole entry): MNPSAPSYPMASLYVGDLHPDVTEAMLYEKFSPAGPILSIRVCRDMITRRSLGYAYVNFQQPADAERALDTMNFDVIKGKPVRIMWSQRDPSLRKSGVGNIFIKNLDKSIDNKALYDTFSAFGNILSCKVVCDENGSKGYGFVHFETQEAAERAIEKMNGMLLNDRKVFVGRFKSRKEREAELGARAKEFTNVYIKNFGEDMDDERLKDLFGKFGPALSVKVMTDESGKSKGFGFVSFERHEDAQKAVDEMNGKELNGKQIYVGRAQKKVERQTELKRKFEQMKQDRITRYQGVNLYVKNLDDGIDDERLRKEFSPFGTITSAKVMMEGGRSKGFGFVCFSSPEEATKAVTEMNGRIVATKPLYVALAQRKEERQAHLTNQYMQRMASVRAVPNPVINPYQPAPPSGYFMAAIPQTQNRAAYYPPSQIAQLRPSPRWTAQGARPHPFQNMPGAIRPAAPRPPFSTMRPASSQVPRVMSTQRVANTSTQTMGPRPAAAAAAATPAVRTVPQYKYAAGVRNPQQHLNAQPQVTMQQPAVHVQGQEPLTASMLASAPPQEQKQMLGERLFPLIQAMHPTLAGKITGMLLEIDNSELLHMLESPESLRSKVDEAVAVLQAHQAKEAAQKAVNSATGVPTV
# [24] = target: T7, Polyadenylate-binding protein 1; assay: PABP1 MLLE–PAM2 binding inhibitor potency, dose response, biochemical, fluorescence polarization, FITC-PAM2 peptide (AID 602259); assay type: functional; conditions: read-out: IC50_Mean
# Lethal factor = Lethal factor (Bacillus anthracis, UniProt P15917); assay: High-throughput multiplex microsphere dose response for inhibitors of toxin protease, specifically Lethal Factor protease, compounds from Cherry Pick 02.; assay type: functional; conditions: read-out: EC50_MICROM
# Sequence of Lethal factor (P15917 whole entry): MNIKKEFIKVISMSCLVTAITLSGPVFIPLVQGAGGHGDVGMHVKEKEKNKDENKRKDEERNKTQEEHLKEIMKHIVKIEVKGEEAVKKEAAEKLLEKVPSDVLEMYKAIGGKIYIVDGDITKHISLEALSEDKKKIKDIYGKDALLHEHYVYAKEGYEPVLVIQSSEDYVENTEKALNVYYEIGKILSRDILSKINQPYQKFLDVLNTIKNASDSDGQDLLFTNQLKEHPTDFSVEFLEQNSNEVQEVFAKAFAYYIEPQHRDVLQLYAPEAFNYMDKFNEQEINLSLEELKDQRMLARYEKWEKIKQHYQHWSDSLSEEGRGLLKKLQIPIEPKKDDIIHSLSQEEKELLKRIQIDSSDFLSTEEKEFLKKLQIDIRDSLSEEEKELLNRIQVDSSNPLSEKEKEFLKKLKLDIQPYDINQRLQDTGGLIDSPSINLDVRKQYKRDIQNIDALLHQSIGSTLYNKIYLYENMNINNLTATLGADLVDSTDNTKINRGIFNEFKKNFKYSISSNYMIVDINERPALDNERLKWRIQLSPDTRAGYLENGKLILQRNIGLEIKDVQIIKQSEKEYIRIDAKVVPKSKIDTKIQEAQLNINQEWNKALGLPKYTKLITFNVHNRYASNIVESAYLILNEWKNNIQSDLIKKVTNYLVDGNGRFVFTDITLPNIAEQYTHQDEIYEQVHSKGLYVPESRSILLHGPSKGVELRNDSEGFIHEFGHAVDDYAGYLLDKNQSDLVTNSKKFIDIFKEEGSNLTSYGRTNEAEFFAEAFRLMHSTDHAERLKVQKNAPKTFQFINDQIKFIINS
# Sequence of Low molecular weight phosphotyrosine protein phosphatase (P24666 whole entry): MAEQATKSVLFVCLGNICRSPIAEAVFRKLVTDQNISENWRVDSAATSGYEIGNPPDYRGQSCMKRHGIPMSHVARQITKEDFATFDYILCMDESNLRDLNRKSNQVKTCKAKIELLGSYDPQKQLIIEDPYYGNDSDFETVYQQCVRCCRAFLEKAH
smiles,measurement,setting,value
CCn1cc(C(=O)O)c(=O)c2cc(F)c(N3CCN(C(=S)NC(=O)c4cccc(F)c4)CC3)cc21,IC50,[1],8.61 µM (active)
CC(=O)Nc1ccc(-c2csc(NC(=O)Nc3ccccc3)n2)cc1,IC50,H9c2,38.3 µM (inactive)
same,EC50,Melanocortin receptor 4,> 89.2 µM (inactive)
CCCOc1ccc(C(=O)NC(=S)N2CCN(c3ncc4c(=O)c(C(=O)O)cn(CC)c4n3)CC2)cc1,IC50,[1],9.82 µM (active)
COc1cc(OC)c(OC)cc1/C=N/NC(=O)c1ccc(=O)n(C)c1,IC50,[2],102 µM (inactive)
C#CCOCCOCCOCCNc1nc(N2CCN(C(=O)CCCCCCCCCCNC(=O)[C@H]([C@@H](C)CC)n3cc(CCCCCN)nn3)CC2)nc(N2CCN(C(=O)CCCCCCCCCCNC(=O)[C@H](CO)n3cc(CCCCCN)nn3)CC2)n1,IC50,Bcl-2-related protein A1,> 20 µM (inactive)
same,IC50,[3],4.22 µM (active)
same,IC50,[4],2.64 µM (active)
same,EC50,Insulin-degrading enzyme [5],9.67 µM (active)
same,IC50,[6],25 µM (active)
same,EC50,Insulin-degrading enzyme [7],> 6.08 µM (active)
same,IC50,HEK293 [8],9.37 µM (active)
same,EC50,HEK293 [9],> 56 µM (inactive)
CCc1cccc2sc(N3CCN(C(=O)c4ccc([N+](=O)[O-])o4)CC3)nc12,EC50,[10],5.99 µM (active)
same,EC50,Streptokinase A,2.38 µM (active)
same,EC50,[11],0.307 µM (active)
same,EC50,[12],5.4 µM (active)
same,EC50,Streptococcus,12.1 µM (active)
same,IC50,[13],4.71 µM (active)
same,IC50,Fatty acid synthase [14],13.3 µM (active)
same,IC50,Fatty acid synthase [15],12.9 µM (active)
COc1ccc(Cn2c(SCc3ccc(C)cc3)nc3cc(OC)c(OC)cc3c2=N)cc1Cl,EC50,[16],> 120 µM (not active)
same,EC50,[10],2.52 µM (active)
same,EC50,[17],> 120 µM (not active)
same,EC50,[18],> 120 µM (not active)
same,EC50,Streptokinase A,5.92 µM (active)
same,EC50,[19],3.54 µM (active)
same,EC50,[20],3.32 µM (active)
same,EC50,Streptococcus,8.22 µM (active)
same,EC50,[21],5.35 µM (active)
same,IC50,[22],> 80 µM (inactive)
same,EC50,Insulin-degrading enzyme [5],> 54.7 µM (inactive)
same,EC50,Insulin-degrading enzyme [7],15.5 µM (inactive)
same,AC50,INS1,3.85 µM (active)
same,IC50,HEK293 [8],15.9 µM (inactive)
same,EC50,HEK293 [9],> 54.7 µM (inactive)
Nc1nnc2cc(Br)ccc2n1,IC50,[23],> 66 µM (inactive)
same,IC50,[24],35.7 µM (inactive)
CCOC(=O)C(C)Sc1nnc(Cc2cc(O)nc(O)n2)n1-c1ccc(Cl)cc1 (stereo unspecified),IC50,[23],> 66 µM (inactive)
same,IC50,[24],> 66 µM (inactive)
Cn1ccc2c(-c3ccc(F)nc3)cc3c(c21)C1CCC3C1 (stereo unspecified),EC50,Lethal factor,10.6 µM (active)
